Experimental data reported in patent US11377423B2, “Inhibitors of histone deacetylase” (The Broad Institute, Inc., priority 2012, dated 2022).
Where two headings read alike, the source gives them in different places.

Tests used:
[1] = Brain and plasma concentration in mice; assay type: in vivo; details: for half-life: mouse, other: injected (site of injection not given)
Description: Specifically, mice were injected with a single dose of compound and the concentration of compound was measured in the brain and plasma of mice at 8 time points. The samples were analyzed by LC-MS/MS.

HDAC2 = HDAC2 (Homo sapiens (Human), UniProt Q92769); assay: Tm shift; assay type: binding
HDAC2, sequence (Q92769 whole entry): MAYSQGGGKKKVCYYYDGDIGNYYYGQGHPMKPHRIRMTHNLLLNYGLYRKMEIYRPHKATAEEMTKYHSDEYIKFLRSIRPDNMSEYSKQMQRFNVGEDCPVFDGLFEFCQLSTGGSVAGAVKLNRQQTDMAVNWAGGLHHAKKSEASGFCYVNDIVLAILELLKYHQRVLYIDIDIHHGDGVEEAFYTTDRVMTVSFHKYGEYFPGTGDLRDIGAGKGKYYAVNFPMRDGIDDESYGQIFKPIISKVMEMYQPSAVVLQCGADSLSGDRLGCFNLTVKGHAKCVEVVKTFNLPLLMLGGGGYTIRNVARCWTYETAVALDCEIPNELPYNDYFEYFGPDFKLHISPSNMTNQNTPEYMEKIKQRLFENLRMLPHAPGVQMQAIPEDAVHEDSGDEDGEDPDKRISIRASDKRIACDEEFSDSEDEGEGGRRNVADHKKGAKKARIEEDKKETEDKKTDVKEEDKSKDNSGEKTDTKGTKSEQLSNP

HDAC1 = HDAC1 (Homo sapiens (Human), UniProt Q13547); assay: Caliper HDAC enzymatic endpoint assay, HDAC1; assay type: biochemical
HDAC1, sequence (Q13547 whole entry): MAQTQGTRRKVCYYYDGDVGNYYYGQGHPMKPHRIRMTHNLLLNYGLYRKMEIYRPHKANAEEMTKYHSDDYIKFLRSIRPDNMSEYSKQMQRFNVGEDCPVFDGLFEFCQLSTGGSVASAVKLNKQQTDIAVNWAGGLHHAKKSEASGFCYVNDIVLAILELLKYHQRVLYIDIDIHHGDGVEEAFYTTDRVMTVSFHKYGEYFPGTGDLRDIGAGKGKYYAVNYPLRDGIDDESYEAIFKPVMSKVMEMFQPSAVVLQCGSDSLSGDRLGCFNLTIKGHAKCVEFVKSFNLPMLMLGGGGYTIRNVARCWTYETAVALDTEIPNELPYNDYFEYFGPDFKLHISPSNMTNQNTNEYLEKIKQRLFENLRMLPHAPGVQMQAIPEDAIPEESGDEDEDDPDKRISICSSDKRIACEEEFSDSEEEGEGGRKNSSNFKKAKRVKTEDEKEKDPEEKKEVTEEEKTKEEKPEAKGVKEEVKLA
Description: (§1) Substrate A was prepared as 2 mM in DMSO. Its final concentration in the assay for HDACs 1, 2, 3, 6 is 2 μM.
(§2) Below is the HDAC and Substrate concentration used in this assay.

HDAC3 = HDAC3 (Homo sapiens (Human), UniProt O15379); assay: Caliper HDAC enzymatic endpoint assay, HDAC3; assay type: biochemical
HDAC3, sequence (O15379 whole entry): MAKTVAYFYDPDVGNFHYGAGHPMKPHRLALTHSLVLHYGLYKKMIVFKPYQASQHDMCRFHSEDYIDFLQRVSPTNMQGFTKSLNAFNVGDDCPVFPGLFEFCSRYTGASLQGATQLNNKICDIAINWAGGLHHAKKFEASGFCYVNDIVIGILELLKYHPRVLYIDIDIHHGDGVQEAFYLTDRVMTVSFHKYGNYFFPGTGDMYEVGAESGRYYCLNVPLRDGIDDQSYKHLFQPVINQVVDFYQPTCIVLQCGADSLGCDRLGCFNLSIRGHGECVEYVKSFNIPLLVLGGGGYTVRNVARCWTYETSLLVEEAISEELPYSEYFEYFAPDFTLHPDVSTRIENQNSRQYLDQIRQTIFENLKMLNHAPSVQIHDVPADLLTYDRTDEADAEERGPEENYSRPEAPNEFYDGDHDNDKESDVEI
HDAC3, sequence (Q9Y618 395-489 partner): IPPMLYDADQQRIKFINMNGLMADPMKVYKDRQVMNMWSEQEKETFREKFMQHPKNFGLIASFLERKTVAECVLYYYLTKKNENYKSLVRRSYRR
Description: as §1, §2

HDAC8 = HDAC8 (Homo sapiens (Human), UniProt Q9BY41); assay: Caliper HDAC enzymatic endpoint assay, HDAC8; assay type: biochemical; details: Table 2C; read-out: HDAC8 IC50 after 0 hr preincubation
HDAC8, sequence (Q9BY41 whole entry): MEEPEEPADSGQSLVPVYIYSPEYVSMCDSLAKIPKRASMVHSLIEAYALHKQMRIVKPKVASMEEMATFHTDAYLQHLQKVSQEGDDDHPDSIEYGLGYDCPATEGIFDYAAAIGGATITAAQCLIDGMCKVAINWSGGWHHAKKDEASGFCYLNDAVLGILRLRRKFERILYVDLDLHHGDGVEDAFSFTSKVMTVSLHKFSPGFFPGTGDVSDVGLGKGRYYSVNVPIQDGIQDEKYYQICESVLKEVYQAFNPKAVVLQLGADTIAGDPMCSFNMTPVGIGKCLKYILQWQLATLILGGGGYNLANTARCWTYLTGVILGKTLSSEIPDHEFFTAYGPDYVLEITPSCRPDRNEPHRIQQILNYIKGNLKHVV
Description: (§3) The Caliper HDAC Assay Buffer (acronym HAB, 1 liter) was prepared as follows:
(§4) Substrate B was prepared as 2 mM in 100% DMSO. Its final concentration in the assay for HDACs 4, 5, 7, 8, 9 is 2 μM.
(§5) LBH was used as quench inhibitor to stop the reaction at the end point.
IC50 values are in micromolar.

HDAC9 = HDAC9 (Homo sapiens (Human), UniProt Q9UKV0); assay: Caliper HDAC enzymatic endpoint assay, HDAC9; assay type: biochemical; details: Table 2C; read-out: HDAC9 IC50 after 0 hr preincubation
HDAC9, sequence (Q9UKV0 whole entry): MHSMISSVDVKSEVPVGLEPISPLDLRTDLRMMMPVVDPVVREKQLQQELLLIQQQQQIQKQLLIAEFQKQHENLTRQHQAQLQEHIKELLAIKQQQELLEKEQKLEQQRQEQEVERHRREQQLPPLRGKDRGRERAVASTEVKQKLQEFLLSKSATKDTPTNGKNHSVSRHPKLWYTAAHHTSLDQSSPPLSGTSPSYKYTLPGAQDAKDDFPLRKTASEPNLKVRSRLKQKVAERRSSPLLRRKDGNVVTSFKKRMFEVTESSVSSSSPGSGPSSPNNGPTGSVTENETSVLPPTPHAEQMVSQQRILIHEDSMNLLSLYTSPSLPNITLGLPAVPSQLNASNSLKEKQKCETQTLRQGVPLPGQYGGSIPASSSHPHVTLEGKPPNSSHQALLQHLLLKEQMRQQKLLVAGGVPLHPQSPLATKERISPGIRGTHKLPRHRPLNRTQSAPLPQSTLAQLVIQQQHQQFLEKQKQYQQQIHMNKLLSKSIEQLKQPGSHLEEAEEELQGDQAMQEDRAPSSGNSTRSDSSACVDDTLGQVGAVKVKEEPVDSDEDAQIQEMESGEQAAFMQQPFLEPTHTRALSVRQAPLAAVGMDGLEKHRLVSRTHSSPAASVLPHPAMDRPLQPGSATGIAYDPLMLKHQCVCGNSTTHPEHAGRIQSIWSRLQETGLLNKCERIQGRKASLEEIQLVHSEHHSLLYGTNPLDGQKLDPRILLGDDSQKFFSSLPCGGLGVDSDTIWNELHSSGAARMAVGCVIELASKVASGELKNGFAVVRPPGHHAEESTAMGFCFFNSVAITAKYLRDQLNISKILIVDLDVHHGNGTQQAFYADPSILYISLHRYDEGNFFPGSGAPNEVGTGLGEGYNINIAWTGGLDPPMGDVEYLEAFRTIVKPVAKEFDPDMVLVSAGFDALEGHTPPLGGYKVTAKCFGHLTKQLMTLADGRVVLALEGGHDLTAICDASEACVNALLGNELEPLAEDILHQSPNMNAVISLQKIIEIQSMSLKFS
Description: as §3, §4, §5
IC50 values are in micromolar.

INS-1E cells [2] = assay: Palmitate and/or glucose-induced beta-cell apoptosis, caspase-3/7 activation; assay type: cell-based, rat; details: 0.5 mM palmitate and/or 25 mM glucose, 48 hours
Description: Compounds of the invention were evaluated for their ability to suppress cytokine-induced beta-cell apoptosis and palmitate and/or glucose-induced beta-cell apoptosis by inhibition of HDAC3. Assay protocols were as follows: Cell culture and reagents. […] Recombinant IL-1β, IFN-γ, and TNF-α were purchased from R&D Systems. Palmitate, D-glucose and fatty acids-free low endotoxin BSA were purchased from Sigma. Palmitate was solubilized in 90% ethanol, heated to 60° C. and used 1:100 dilution in media. Caspase-Glo 3/7 was from Promega and 3-(4,5-dimethylthiazol-2-yl)-2,5-diphenyltetrazolium bromide (MTT) was from Calbiochem. Antibodies for HDAC1, HDAC2, HDAC3, pJNK, JNK cleaved caspase-9 and secondary horseradish-peroxidase conjugated goat anti-mouse and anti-rabbit antibodies were from Cell Signaling. Antibody for beta-actin was from Sigma and antibody against CHOP (GADD153) from Abcam. HDAC inhibitors were purchased from Selleck Chemicals or synthesized in-house. Primers were from Integrated DNA Technologies, High Capacity cDNA RT kit and SYBR green master mix were purchased from Applied Biosystems. […] Luminescence was measured after a two-hour incubation using an Envision plate reader (PerkinElmer). […] Apoptosis was measured by caspase-3/7 activation using a commercially available kit. […]

INS-1E cells [3] = assay: Insulin assay (glucose-stimulated insulin secretion and insulin content, ELISA); assay type: cell-based, rat; details: 10 μM, palmitate and 25 mM glucose, 24 h
Description: INS-1E cells (20,000 cells/well) were seeded in 96-well plates in 100 uL complete medium. After overnight incubation media was removed and cells were exposed to 100 uL medium/well with the indicated concentrations of palmitate, glucose, HDAC inhibitors and/or vehicle. […] Cells were subsequently incubated with KRBH buffer containing 2 mM or 16 mM glucose for 1 hour. Supernatants were collected for measurement of insulin. For measuring insulin content, cells were washed in PBS and lysed using Passive Lysis Buffer. Insulin was measured with a rat insulin ELISA kit (Alpco). Total insulin content was normalized to total protein (Bradford assay). Each condition was assayed in biological duplicates. Specifically, HDAC3 inhibition is shown to preserve the glucose-induced insulin secretory function. […] FIGS. 13A to 13B are a series of bar graphs. […] Glucose-stimulated insulin secretion and total insulin content were assessed by ELISA. Data are presented as fold to CTRL+SEM, n=3-5, ns=not significant, *p<0.05, **p<0.01, ***p<0.001 vs. CTRL, #p<0.05, ##p<0.01, ###p<0.001 vs. respective treatment. ANOVA with Tukey- or Dunnet-corrected test, or Student's t-test (insulin content).

INS-1E cells [4] = assay: ER stress / UPR markers by qPCR and immunoblotting; assay type: cell-based, rat; details: 10 μM, GLT
Description: INS-1E cells (one million/well) were seeded in 6-well plates in 2 mL complete medium. After two days, medium was removed and cells were exposed to 2 mL medium/well with the indicated concentrations of palmitate, glucose, HDAC inhibitors and/or vehicle. RNA was purified (Qiagen) and cDNA synthesis performed done according to manufacturers' guidelines (Applied Biosystems) and real-time PCR performed using the SYBR green method (Applied Biosystems). Each cDNA sample in triplicate was subjected to two individual PCR amplifications either for the gene of interest or the reference gene β-actin. See table below for primer sequences. INS-1E cells (one million/well) were seeded in 6-well plates in 2 mL complete medium. After two days, medium was removed and cells were exposed to 2 mL medium/well with the indicated concentrations of palmitate, glucose, test compounds and/or vehicle. Cells were lysed using Passive Lysis Buffer (Promega) containing protease inhibitors (Roche). Lysates were adjusted for protein concentration (Bradford) and protein separated by SDS-PAGE and transferred to PVDF membranes. Blots were developed using a chemiluminescence detection system (SuperSignal, Thermo Fisher Scientific), and light emission was captured using an Imaging Station 4000MM (Carestream). […] Gene expressions (vehicle=open bars, compound 1=light grey bars, GLT=black bars, GLT and compound 1=dark grey bars) were analyzed by qPCR (FIGS. 14A, 14B, 14D, 14E, and 14F) and protein levels (FIGS. 14C and 14G) (24 h) by immunoblotting. Representative blots are shown. Data are presented as fold to CTRL+SEM n=3-4, ns=not significant, *p<0.05, **p<0.01, ***p<0.001 vs unexposed cells; #p<0.05, ##p<0.01, ###p<0.001 vs. GLT treated cells, ANOVA with Tukey corrected test.

[5] = mice, single dose, Repligen 136 30 mg/kg, Compound 1 10 mg/kg

For `CC(=O)Nc1ccc(C(=O)Nc2ccc(F)cc2N)cc1` [Compound 1, 4-acetamido-N-(2-amino-4-fluorophenyl)benzamide], the “better brain exposure in comparison to Repligen 136 as measured by Cmax” value ([1]; dose normalized) was 30 times, the “better brain exposure in comparison to Repligen 136 measured by AUC” value ([1]; dose normalized) was 120 times and the “AUC Brain” value [1, 5] was 12.77 µM·h. The “Cmax Brain” value [1, 5] was 3.80 µM, the “concentration in the brain over time” value [1, 5] was “still present in the brain after 8 hours” and the half-life ([1]; brain, read-out: T1/2 Brain (converted)) was 2.06 h. The half-life ([1]; plasma, read-out: T1/2 Plasma (converted)) was 2.26 h, the “better plasma exposure as measured by AUC than Repligen 136” value ([1]; plasma) was 30 times and the Tm shift (HDAC2) was 2.7 °C. For the same compound, the IC50 (HDAC1; read-out: HDAC1 IC50 3 h Prein, Table 2, 3 h preincubation) was 1250 nM, the IC50 (HDAC1; read-out: HDAC1 IC50 3 h Preinc, Table 2A, 3 h preincubation) was 1250 nM and the IC50 (HDAC1; read-out: HDAC1 IC50 @3 hr, 3 hr preincubation) was 1250 nM. For the same compound, the “more potent inhibitor of HDAC3 than compounds 3 and 4” value (HDAC3; IC50, 3 h preincubation) was 5-10 times, the IC50 (HDAC3; read-out: HDAC3 IC50 3 h Prein, Table 2, 3 h preincubation) was 68 nM and the IC50 (HDAC3; read-out: HDAC3 IC50 3 h Preinc, Table 2A, 3 h preincubation) was 68 nM. The IC50 (HDAC3; read-out: HDAC3 IC50 @3 hr, 3 hr preincubation) was 68 nM, the IC50 (HDAC8) was > 33000 nM and the IC50 (HDAC9) was > 33000 nM. For the same compound, the “suppression of palmitate and/or glucose-induced beta-cell apoptosis (caspase activity)” value (INS-1E cells [2]) was “as effective at suppressing palmitate and/or glucose-induced beta-cell apoptosis as CI-994”, the glucose-stimulated insulin release (INS-1E cells [3]) was “restoring insulin release” and the insulin content (INS-1E cells [3]) was “restoring insulin content”. For the same compound, the “Atf4 transcription factor induction” value (INS-1E cells [4]) was “did not affect Atf4 transcription factor induction”, the “levels of the ER chaperone Bip mRNA” value (INS-1E cells [4]) was “did not change” and the “splicing of Xbp1 to Xbp1s” value (INS-1E cells [4]) was “did not affect splicing”. For the same compound, the “ATF4-mediated induction of Chop” value (INS-1E cells [4]; 9 hrs) was “decreased”, the “ATF4-mediated induction of Atf3” value (INS-1E cells [4]; 24 hrs) was “decreased” and the “CHOP mRNA and protein induction” value (INS-1E cells [4]; 24 hrs) was “completely reversed”. The “phosphorylation of JNK (pJNK/tJNK)” value (INS-1E cells [4]; 24 hrs) was “inhibited phosphorylation of JNK”.
